Measurements taken from article PMC8935241, “Ebselen enhances insulin sensitivity and decreases oxidative stress by inhibiting SHIP2 and protects from inflammation in diabetic mice” (International Journal of Biological Sciences, 2022).

What was measured:
[1] = molecular target: T1, SHIP1 (Src homology 2 domain-containing inositol-5-phosphatase 1) (Homo sapiens, UniProt Q92835); experiment: malachite green phosphate assay with PI([…])P3 diC8 on recombinant phosphatase domain; assay type: biochemical
T1 construct: gene INPP5D; Recombinant His-tagged human SHIP1 phosphatase domain
T1 sequence (Q92835 399-715 limits assumed): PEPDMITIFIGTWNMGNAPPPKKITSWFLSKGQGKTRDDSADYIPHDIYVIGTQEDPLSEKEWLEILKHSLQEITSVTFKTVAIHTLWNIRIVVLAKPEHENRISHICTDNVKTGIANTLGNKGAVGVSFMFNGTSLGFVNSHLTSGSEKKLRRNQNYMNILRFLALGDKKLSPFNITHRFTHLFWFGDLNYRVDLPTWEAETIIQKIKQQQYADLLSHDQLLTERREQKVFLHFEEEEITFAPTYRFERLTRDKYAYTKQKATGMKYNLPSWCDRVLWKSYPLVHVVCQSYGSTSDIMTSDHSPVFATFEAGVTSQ

[2] = molecular target: T2, SHIP2 (Src homology 2 domain-containing inositol-5-phosphatase 2) (Homo sapiens, UniProt O15357); experiment: as above; assay type: biochemical
T2 construct: gene INPPL1; Recombinant His-tagged human SHIP2 phosphatase domain
T2 sequence (O15357 419-732 limits assumed): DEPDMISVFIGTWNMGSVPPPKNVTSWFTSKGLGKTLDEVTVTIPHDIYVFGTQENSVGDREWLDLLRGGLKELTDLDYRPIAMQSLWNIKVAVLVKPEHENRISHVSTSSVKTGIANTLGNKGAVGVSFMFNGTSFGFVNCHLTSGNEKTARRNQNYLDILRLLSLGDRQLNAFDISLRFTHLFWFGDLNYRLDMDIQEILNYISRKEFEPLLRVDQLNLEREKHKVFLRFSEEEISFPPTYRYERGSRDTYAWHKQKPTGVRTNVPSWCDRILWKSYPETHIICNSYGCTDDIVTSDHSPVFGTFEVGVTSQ

IC50 [1]: 1810 nM
IC50 [2]: 480 nM
SMILES: O=c1c2ccccc2[se]n1-c1ccccc1 [ebselen]
